In patent US20260217677A1, “ORGANIC COMPOUNDS AS NLRP3 INHIBITORS” (KODIAK SCIENCES, INC., priority 2023, published 2026) one finds IC50 data, which are given here for 28 molecules.

Where only a bound is given, the exact number is not on record here.

A word on the IC50: it is the concentration that gives 50% inhibition.

The test system of the first test is IL-1β release in U937 cells after NLRP3 activation. Put plainly: IL-1β release inhibition in U937 cells (MSD V-Plex). To be noted: Homo sapiens, U-937, read-out: IL-1β IC50, Table 3; PMA-differentiated U937 cells, 1 μg/mL LPS 3 h, compound 30 min, 10 mM nigericin 1 h.
Procedure: Differentiating media was prepared by adding 20 nM phorbol 12-myristate 13-acetate (PMA) (AdipoGen AG-CN2-0010-M005) to growth medium. A cell suspension was prepared with differentiating media at 500K cells/mL. […] Plates were placed in an incubator for 90 hours. […] Differentiating media was removed and priming media was added to each well. The plates were placed in the incubator for three (3) hours. 20 mM compound DMSO stock solutions were prepared and were further diluted to 0.4 mM; This solution was serially diluted 6 times in a 1:5 ratio. A solvent control was included.
After three (3) hours of priming, all the media was removed. Next, assay media with compounds was added in duplicate columns. The plate was placed in an incubator for 30 min. Media with a final concentration of 10 mM nigericin was then added for one (1) hour. The supernatant was collected and frozen immediately at −80° C. The plate was transferred to −20° C. the next day and for later determination of cytokine IL-1ß levels.
The release of IL-1ß into the cell media was determined with the MSD® Multi-Spot Assay System (V-Plex, IL-1ß kit, K151KPD). Following the manufacturer's protocol (Alternate Protocol 3, Dilute-In-Plate), the level of IL-1ß in the above collected supernatant plate was measured using electro-chemiluminescent signals. Using MSD DISCOVERY WORKBENCH® analysis software, the signals were converted to the concentration of IL-1ß in each well. The IC50 values of the compounds were calculated using fitted non-linear regression curve in Graph Pad Prism software. The detection range of IL-1ß using MSD kit was approximately 0.15 to 600 μg/mL (based on various lots of standards purchased from MSD).
Regarding `Oc1cc(C(F)(F)F)ccc1-c1nnc(N[C@@H]2CCCN(C[C@H]3C[C@H](O)C3)C2)c2c1COC2` [Example 59, 2-(4-(((R)-1-(((1r,3R)-3-Hydroxycyclobutyl)methyl)piperidin-3-yl)amino)-5,7-dihydrofuro[3,4-d]pyridazin-1-yl)-5-(trifluoromethyl)phenol], the IC50 was below 5 nM.

Take `O=C(CN1CCC[C@@H](Nc2nnc(-c3ccc4sccc4c3O)c3c2COC3)C1)N1CCC(O)CC1` [Example 56, (R)-2-(3-((4-(4-Hydroxybenzo[b]thiophen-5-yl)-5,7-dihydrofuro[3,4-d]pyridazin-1-yl)amino)piperidin-1-yl)-1-(4-hydroxypiperidin-1-yl)ethan-1-one]: the concentration for half-maximal inhibition (IC50) was 5 to 50 nM.

Turning to `Cc1cc(C(F)(F)F)cc(O)c1-c1ccc(N[C@@H]2CCCN(CCN3CCC(O)CC3)C2)nn1` [Compound 6, (R)-1-(2-(3-((6-(2-Hydroxy-6-methyl-4-(trifluoromethyl)phenyl)pyridazin-3-yl)amino)piperidin-1-yl)ethyl)piperidin-4-ol], the IC50 was 50 to 500 nM.

Take `Cc1cc(-c2ccc(C(F)(F)F)cc2O)nnc1N[C@@H]1CCCN(CC(=O)N2CC[C@@H](O)C2)C1` [Example 32, 2-((R)-3-((6-(2-Hydroxy-4-(trifluoromethyl)phenyl)-4-methylpyridazin-3-yl)amino)piperidin-1-yl)-1-((R)-3-hydroxypyrrolidin-1-yl)ethan-1-one]: the IC50 was 5 to 50 nM.

`O=C(CN1CCC[C@@H](Nc2nnc(-c3ccc(C(F)(F)F)cc3O)c3c2COC3)C1)N1C[C@@H](O)[C@H](F)C1` [Example 29, 1-((3R,4R)-3-Fluoro-4-hydroxypyrrolidin-1-yl)-2-((R)-3-((4-(2-hydroxy-4-(trifluoromethyl)phenyl)-5,7-dihydrofuro[3,4-d]pyridazin-1-yl)amino)piperidin-1-yl)ethan-1-one]: the IC50 is 5 to 50 nM.

On to `Cc1cc(N[C@@H]2CCCN(CC(=O)N3CC(O)C3)C2)nnc1-c1ccc(C(F)(F)F)cc1O` [Compound 8, (R)-2-(3-((6-(2-Hydroxy-4-(trifluoromethyl)phenyl)-5-methylpyridazin-3-yl)amino)piperidin-1-yl)-1-(3-hydroxyazetidin-1-yl)ethan-1-one], for which the IC50 was in the range of 5 to 50 nM.

Regarding `Cc1cc(N[C@@H]2CCCN(C3CCN(C(=O)N4CC(O)C4)CC3)C2)nnc1-c1ccc(C(F)(F)F)cc1O` [Example 40, (R)-(3-((6-(2-Hydroxy-4-(trifluoromethyl)phenyl)-5-methylpyridazin-3-yl)amino)-[1,4′-bipiperidin]-1′-yl) (3-hydroxyazetidin-1-yl)methanone], the half-inhibitory concentration (IC50) is below 5 nM.

`Cc1cc(N[C@@H]2CCCN(CC(C)(C)C(=O)N3CCC(O)CC3)C2)nnc1-c1ccc(C(F)(F)F)cc1O` [Example 47, 3-[(3R)-3-({6-[2-Hydroxy-4-(trifluoromethyl)phenyl]-5-methylpyridazin-3-yl}amino)piperidin-1-yl]-1-(4-hydroxypiperidin-1-yl)-2,2-dimethylpropan-1-one]: the IC50 fell in the range of 50 to 500 nM.

For the molecule `Cc1cc(N[C@@H]2CCCN(CCN3CC(O)C3)C2)nnc1-c1ccc(C(F)(F)F)cc1O` [Example 37, (R)-1-(2-(3-((6-(2-Hydroxy-4-(trifluoromethyl)phenyl)-5-methylpyridazin-3-yl)amino)piperidin-1-yl)ethyl)azetidin-3-ol], the IC50 was 5 to 50 nM.

For the molecule `O=C(CN1CCC[C@@H](Nc2nnc(-c3ccc(C(F)(F)F)cc3O)c3ccccc23)C1)N1CCC(O)CC1` [Example 33, (R)-2-(3-((4-(2-Hydroxy-4-(trifluoromethyl)phenyl)phthalazin-1-yl)amino)piperidin-1-yl)-1-(4-hydroxypiperidin-1-yl)ethan-1-one], the IC50 was below 5 nM.

`Cc1cc(N[C@@H]2CCCN(CC34CC(O)(C3)C4)C2)nnc1-c1ccc(C(F)(F)F)cc1O` [Example 64, (R)-3-((3-((6-(2-Hydroxy-4-(trifluoromethyl)phenyl)-5-methylpyridazin-3-yl)amino)piperidin-1-yl)methyl) bicyclo[1.1.1]pentan-1-ol]: the IC50 was below 5 nM.

For `Cc1cc(N[C@@H]2CCCN(C3CCN(C(=O)N4CCC(O)CC4)CC3)C2)nnc1-c1ccc(C(F)(F)F)cc1O` [Example 41, (R)-(3-((6-(2-Hydroxy-4-(trifluoromethyl)phenyl)-5-methylpyridazin-3-yl)amino)-[1,4′-bipiperidin]-1′-yl) (4-hydroxypiperidin-1-yl)methanone], the IC50 is 5 to 50 nM.

`Cc1c(N[C@@H]2CCCN(CCOC(=O)N3CCC(O)CC3)C2)nnc(-c2ccc(C(F)(F)F)cc2O)c1C` [Example 75, (R)-2-(3-((6-(2-Hydroxy-4-(trifluoromethyl)phenyl)-4,5-dimethylpyridazin-3-yl)amino)piperidin-1-yl)ethyl 4-hydroxypiperidine-1-carboxylate]: the IC50 is below 5 nM.

`Cc1cc(N[C@@H]2CCCN(CC(=O)N3CCC4(CC3)CC(O)C4)C2)nnc1-c1ccc(C(F)(F)F)cc1O` [Compound 15, 2-[(3R)-3-({6-[2-Hydroxy-4-(trifluoromethyl)phenyl]-5-methylpyridazin-3-yl}amino)piperidin-1-yl]-1-{2-hydroxy-7-azaspiro[3.5]nonan-7-yl}ethanone]: the IC50 was below 5 nM.

For `O=C(CN1CCC[C@@H](Nc2nnc(-c3ccc(C(F)(F)F)cc3O)c3c2COC3)C1)N1CC(O)C1` [Compound 22, (R)-2-(3-((4-(2-Hydroxy-4-(trifluoromethyl)phenyl)-5,7-dihydrofuro[3,4-d]pyridazin-1-yl)amino)piperidin-1-yl)-1-(3-hydroxyazetidin-1-yl)ethan-1-one], the IC50 is 5 to 50 nM.

As for `Cc1cc(N[C@@H]2CCCN(CC3CC4(CC(O)C4)C3)C2)nnc1-c1ccc(C(F)(F)F)cc1O` (stereo partly drawn) [Example 62, (R)-6-((3-((6-(2-Hydroxy-4-(trifluoromethyl)phenyl)-5-methylpyridazin-3-yl)amino)piperidin-1-yl)methyl)spiro[3.3]heptan-2-ol], the IC50 is below 5 nM.

Regarding `Cc1c(-c2ccc(C(F)(F)F)cc2O)nnc2c1CCCN2[C@@H]1CCCN(C2CCN(C3CC(O)C3)CC2)C1` (stereo partly drawn) [Example 44, 2-{8-[(3R)-1′-(3-Hydroxycyclobutyl)-[1,4′-bipiperidin]-3-yl]-4-methyl-5H,6H,7H-pyrido[2,3-c]pyridazin-3-yl}-5-(trifluoromethyl)phenol], the IC50 lay in the range of 50 to 500 nM.

Take `Cc1cc(N[C@@H]2CCCN(CCN3CC[C@@H](O)C3)C2)nnc1-c1ccc(C(F)(F)F)cc1O` [Compound 3, (R)-1-(2-((R)-3-((6-(2-Hydroxy-4-(trifluoromethyl)phenyl)-5-methylpyridazin-3-yl)amino)piperidin-1-yl)ethyl)pyrrolidin-3-ol]: the IC50 was above 500 nM.

With `Cc1cc(N[C@@H]2CCCN(C(=O)C3CC4(CC(O)C4)C3)C2)nnc1-c1ccc(C(F)(F)F)cc1O` (stereo partly drawn) [Example 61, (R)-(3-((6-(2-Hydroxy-4-(trifluoromethyl)phenyl)-5-methylpyridazin-3-yl)amino)piperidin-1-yl) (6-hydroxyspiro[3.3]heptan-2-yl)methanone], the IC50 lay within 5 to 50 nM.

The same test, now with this note: Homo sapiens, U-937, read-out: IL-1β IC50, Table 4; PMA-differentiated U937 cells, 1 μg/mL LPS 3 h, compound 30 min, 10 mM nigericin 1 h.
Regarding `Cc1cc(N[C@@H]2CCCN(C[C@H]3CCCN3)C2)nnc1-c1ccc(C(F)(F)F)cc1O` [Example 107, 2-(4-Methyl-6-(((R)-1-(((R)-pyrrolidin-2-yl)methyl)piperidin-3-yl)amino)pyridazin-3-yl)-5-(trifluoromethyl)phenol], the IC50 lay in the range of 5 to 50 nM.

Take `Oc1cc(C(F)(F)F)ccc1-c1nnc(N[C@@H]2CCCN(C3CCNCC3)C2)c2c1COC2` [Example 100, (R)-2-(4-([1,4′-Bipiperidin]-3-ylamino)-5,7-dihydrofuro[3,4-d]pyridazin-1-yl)-5-(trifluoromethyl)phenol]: the IC50 is 5 to 50 nM.

Turning to `Cc1cc(N[C@@H]2CCCN(CC(=O)N3CCC(N)CC3)C2)nnc1-c1ccc(C(F)(F)F)cc1O` [Example 83, (R)-1-(4-Aminopiperidin-1-yl)-2-(3-((6-(2-hydroxy-4-(trifluoromethyl)phenyl)-5-methylpyridazin-3-yl)amino)piperidin-1-yl)ethan-1-one], the IC50 was in the range of 50 to 500 nM.

Turning to `Cc1cc(N[C@@H]2CCCN(C3CCN(CCN)CC3)C2)nnc1-c1ccc(C(F)(F)F)cc1O` [Example 98, (R)-2-(6-((1′-(2-Aminoethyl)-[1,4′-bipiperidin]-3-yl)amino)-4-methylpyridazin-3-yl)-5-(trifluoromethyl)phenol], the IC50 was in the range of 50 to 500 nM.

Consider `Cc1cc(N[C@@H]2CCCN(CC(=O)N3C[C@H]4CNC[C@H]4C3)C2)nnc1-c1ccc(C(F)(F)F)cc1O` [Example 112, 1-((3aR,6aS)-Hexahydropyrrolo[3,4-c]pyrrol-2 (1H)-yl)-2-((R)-3-((6-(2-hydroxy-4-(trifluoromethyl)phenyl)-5-methylpyridazin-3-yl)amino)piperidin-1-yl)ethan-1-one], for which the IC50 lay within 5 to 50 nM.

`Cc1cc(N[C@@H]2CCCN(CC(=O)NC3CCNCC3)C2)nnc1-c1ccc(C(F)(F)F)cc1O` [Example 95, (R)-2-(3-((6-(2-Hydroxy-4-(trifluoromethyl)phenyl)-5-methylpyridazin-3-yl)amino)piperidin-1-yl)-N-(piperidin-4-yl)acetamide]: the IC50 was 50 to 500 nM.

For `Cc1cc(N[C@@H]2CCCN(CCNCC3COC3)C2)nnc1-c1ccc(C(F)(F)F)cc1O` [Example 108, (R)-2-(4-Methyl-6-((1-(2-((oxetan-3-ylmethyl)amino)ethyl)piperidin-3-yl)amino)pyridazin-3-yl)-5-(trifluoromethyl)phenol], the IC50 was 5 to 50 nM.

Consider `Cc1cc(N[C@@H]2CCCN(CC(F)(F)CN)C2)nnc1-c1ccc(C(F)(F)F)cc1O` [Example 97, (R)-2-(6-((1-(3-Amino-2,2-difluoropropyl)piperidin-3-yl)amino)-4-methylpyridazin-3-yl)-5-(trifluoromethyl)phenol], for which the IC50 was 5 to 50 nM.

With `Oc1cc(C(F)(F)F)ccc1-c1nnc(N[C@@H]2CCCN(C3CNC3)C2)c2c1CCC2` [Example 80, (R)-2-(4-((1-(Azetidin-3-yl)piperidin-3-yl)amino)-6,7-dihydro-5H-cyclopenta[d]pyridazin-1-yl)-5-(trifluoromethyl)phenol], the IC50 is 5 to 50 nM.
